The record followed here is patent US9969979B2, “Methods for producing cells having a phenotype of a primary human hepatocytes and compositions” (The Governors of the University of Alberta, priority 2012, dated 2018).

Each structure is given as a SMILES string.

For this assay, the system named is Huh7.5 cells. The assay is described as follows: Quantitative RT-PCR of hepatocyte differentiation markers in cultured Huh7.5 cells. In kind it is cell-based, human. The following applies: Huh7.5 cells grown 3 weeks, relative to FBS. How it is done: RNA was isolated from cells using Trizol, according to the instructions of the manufacturer. cDNA was produced from the RNA using Quantitect Reverse Transcription kit (Qiagen). Gene specific primer-probe sets were designed by Applied Biosystems. An Applied Biosystems 7900HT Fast Real-Time PCR system was used for the quantitation of gene products. Gene expression was calculated relative to HPRT according to Pfaffl (Pfaffl M W. Nucleic Acids Res 29: e45, 2001).
To further evaluate the effect of culturing cells in HS-containing medium, and to assess whether these cells underwent differentiation to a primary hepatocyte-like cell, level of expression of hepatocyte differentiation marker were assayed at 7 days and 21 days after transfer of Huh7.5 cells into HS-supplemented medium. After 7 days only minor changes in hepatocyte markers were observed. (FIG. 3A) However, after 21 days, the expression of the hepatic differentiation markers albumin and alpha1-antiTrypsin was increased approximately 4 fold in cells grown in human serum compared to FBS. The level of expression of these proteins is similar to the level of expression of human primary hepatocytes in culture.
DMSO, (dimethyl sulfoxide) has been reported to induce growth arrest in HuH-7 or -derived cells, and other hepatoma cells. (Sainz et al. (2006) J Virol 80: 10253-10257). […]

On to `C[S+](C)[O-]` [DMSO, dimethyl sulfoxide], for which the Albumin expression entry is “slight increase”.
